In brackets after ≈: the same amount, converted by molar mass. Like-named read-outs stand apart in the source and are kept apart here.
Legend:
gram negative bacteria = assay: In vitro anti-bacterial activity assay (broth dilution MIC), gram negative bacteria; format: cell-based, E. coli
Outline: (§1)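 Broth dilution MIC following CLSI M7-A2: compounds serially diluted, log-phase test strains added to final ~5×10^5 CFU/ml, incubated ~18 hours at 35° C in ambient air. Plates read on microplate reader or visually; MIC is lowest concentration inhibiting growth.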

in vitro = format: cell-based; details: Chinese hamster, Cytotox. CHO-K1
gram positive bacteria = assay: In vitro anti-bacterial activity assay (broth dilution MIC), gram positive bacteria; format: cell-based, S. aureus; details: 18 h
Outline: as §1

3T3 fibroblast cells = assay: In vitro phototoxicity assay (neutral red; UV light-treated vs dark control plates); format: cell-based; details: for Photo Toxicity UV Tox50: UV light 50 minutes; for Photo Toxicity Dark Tox50: dark control plate
Outline: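 Neutral red viability readout (A535 after EtOH/acetic acid extraction) compares paired plates: one exposed 50 min to UV at 1.6–1.8 mW/cm^2, one held in darkness, both dosed with compound in HBSS and recovered overnight. 3T3 fibroblast cells used; phototoxicity taken as the difference.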

[1] = Mammalian cytotoxicity assay (resazurin), COS-1 cells; format: cell-based; details: African green monkey, read-out: Cytotox. COS-1
Outline: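 Cells seeded overnight at 37° C., 5% CO2, then exposed to serial compound dilutions for 24 hours. Medium replaced with resazurin (0.042 mg/ml in PBS with Ca and Mg) for 2 hours plus 30 minutes dark at room temperature; fluorescence read at ex 535/em 590 nm, IC50 taken as 50% growth inhibition.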

[2] = Escherichia coli, 18 h, E. coli D1 209, read-out: Median MIC's G− E. coli D1 209
[3] = Escherichia coli, 18 h, E. coli MG 1655, read-out: Median MIC's G− E. coli MG 1655
[4] = Escherichia coli, ATCC25922, 18 h, E. coli ATCC 25922, read-out: Median MIC's G− E. coli ATCC 25922
[5] = Pseudomonas aeruginosa, 18 h, P. aeruginosa K201 PAO6609, read-out: Median MIC's G− P. aeruginosa K201 PAO6609
[6] = Staphylococcus aureus, S. aureus MRSA5, read-out: Median MIC's G+ S. aureus MRSA5
[7] = Staphylococcus aureus, S. aureus RN450, read-out: Median MIC's G+ S. aureus RN450
[8] = Streptococcus pneumoniae, S. pneumoniae 157E-Strep, read-out: Median MIC's G+ S. pneumoniae 157E-Strep

C=CCNCC(=O)c1ccc(O)c2c1C[C@H]1C[C@H]3[C@H](N(C)C)C(O)=C(C(N)=O)C(=O)[C@@]3(O)C(O)=C1C2=O [BV]
MIC (gram negative bacteria; [2]): 64 µg/mL (≈ 125 µM)
MIC (gram negative bacteria; [3]): 16 µg/mL (≈ 31.3 µM)
MIC (gram negative bacteria; [4]): 32 µg/mL (≈ 62.6 µM)
MIC (gram negative bacteria; [5]): 64 µg/mL (≈ 125 µM)
IC50 at 24 h (in vitro): 27.6 µM
MIC (gram positive bacteria; [6]): 32 µg/mL (≈ 62.6 µM)
MIC (gram positive bacteria; [7]): 4 µg/mL (≈ 7.82 µM)
MIC (gram positive bacteria; [8]): 1 µg/mL (≈ 1.95 µM)
Photo Toxicity UV Tox50 (3T3 fibroblast cells): >121.69 µM
Photo Toxicity Dark Tox50 (3T3 fibroblast cells): >121.69 µM
IC50 at 24 h [1]: > 122 µM

COCC(=O)c1ccc(O)c2c1C[C@H]1C[C@H]3[C@H](N(C)C)C(O)=C(C(N)=O)C(=O)[C@@]3(O)C(O)=C1C2=O [BW]
MIC (gram negative bacteria; [2]): 64 µg/mL (≈ 132 µM)
MIC (gram negative bacteria; [3]): 0.5 µg/mL (≈ 1.03 µM)
MIC (gram negative bacteria; [4]): 0.5 µg/mL (≈ 1.03 µM)
MIC (gram negative bacteria; [5]): 32 µg/mL (≈ 65.8 µM)
IC50 at 24 h (in vitro): > 53.4 µM
MIC (gram positive bacteria; [6]): 1 µg/mL (≈ 2.06 µM)
MIC (gram positive bacteria; [7]): 0.06 µg/mL (≈ 0.123 µM)
MIC (gram positive bacteria; [8]): 0.06 µg/mL (≈ 0.123 µM)
Photo Toxicity UV Tox50 (3T3 fibroblast cells): >172.1 µM
Photo Toxicity Dark Tox50 (3T3 fibroblast cells): >172.1 µM
IC50 at 24 h [1]: > 53.4 µM

CC(C)N1CCN(CC(=O)c2ccc(O)c3c2C[C@H]2C[C@H]4[C@H](N(C)C)C(O)=C(C(N)=O)C(=O)[C@@]4(O)C(O)=C2C3=O)CC1 [BX]
MIC (gram negative bacteria; [2]): 64 µg/mL (≈ 110 µM)
MIC (gram negative bacteria; [3]): 8 µg/mL (≈ 13.7 µM)
MIC (gram negative bacteria; [4]): 8 µg/mL (≈ 13.7 µM)
MIC (gram negative bacteria; [5]): 64 µg/mL (≈ 110 µM)
IC50 at 24 h (in vitro): > 130 µM
MIC (gram positive bacteria; [6]): 4 µg/mL (≈ 6.87 µM)
MIC (gram positive bacteria; [7]): 1 µg/mL (≈ 1.72 µM)
MIC (gram positive bacteria; [8]): 0.5 µg/mL (≈ 0.858 µM)
Photo Toxicity UV Tox50 (3T3 fibroblast cells): >130.05 µM
Photo Toxicity Dark Tox50 (3T3 fibroblast cells): >130.05 µM
IC50 at 24 h [1]: > 130 µM

CN(C)[C@@H]1C(O)=C(C(N)=O)C(=O)[C@@]2(O)C(O)=C3C(=O)c4c(O)ccc(C(=O)CNCc5ccccn5)c4C[C@H]3C[C@@H]12 [BY]
MIC (gram negative bacteria; [2]): 64 µg/mL (≈ 114 µM)
MIC (gram negative bacteria; [3]): 64 µg/mL (≈ 114 µM)
MIC (gram negative bacteria; [4]): 64 µg/mL (≈ 114 µM)
MIC (gram negative bacteria; [5]): 64 µg/mL (≈ 114 µM)
IC50 at 24 h (in vitro): > 13.4 µM
MIC (gram positive bacteria; [6]): 32 µg/mL (≈ 56.9 µM)
MIC (gram positive bacteria; [7]): 2 µg/mL (≈ 3.56 µM)
MIC (gram positive bacteria; [8]): 4 µg/mL (≈ 7.11 µM)
Photo Toxicity UV Tox50 (3T3 fibroblast cells): >133.75 µM
Photo Toxicity Dark Tox50 (3T3 fibroblast cells): >133.75 µM
IC50 at 24 h [1]: > 13.4 µM

CN(C)[C@@H]1C(O)=C(C(N)=O)C(=O)[C@@]2(O)C(O)=C3C(=O)c4c(O)ccc(C(=O)CNCC(N)=O)c4C[C@H]3C[C@@H]12 [BZ]
MIC (gram negative bacteria; [2]): 64 µg/mL (≈ 121 µM)
MIC (gram negative bacteria; [3]): 64 µg/mL (≈ 121 µM)
MIC (gram negative bacteria; [4]): 64 µg/mL (≈ 121 µM)
MIC (gram negative bacteria; [5]): 64 µg/mL (≈ 121 µM)
IC50 at 24 h (in vitro): > 119 µM
MIC (gram positive bacteria; [6]): 64 µg/mL (≈ 121 µM)
MIC (gram positive bacteria; [7]): 4 µg/mL (≈ 7.57 µM)
MIC (gram positive bacteria; [8]): 4 µg/mL (≈ 7.57 µM)
Photo Toxicity UV Tox50 (3T3 fibroblast cells): >118.96 µM
Photo Toxicity Dark Tox50 (3T3 fibroblast cells): >118.96 µM
IC50 at 24 h [1]: > 119 µM

COC(C)CNCC(=O)c1ccc(O)c2c1C[C@H]1C[C@H]3[C@H](N(C)C)C(O)=C(C(N)=O)C(=O)[C@@]3(O)C(O)=C1C2=O (stereo partly drawn) [CA]
MIC (gram negative bacteria; [2]): 64 µg/mL (≈ 118 µM)
MIC (gram negative bacteria; [3]): 32 µg/mL (≈ 58.9 µM)
MIC (gram negative bacteria; [4]): 32 µg/mL (≈ 58.9 µM)
MIC (gram negative bacteria; [5]): 64 µg/mL (≈ 118 µM)
IC50 at 24 h (in vitro): > 146 µM
MIC (gram positive bacteria; [6]): 32 µg/mL (≈ 58.9 µM)
MIC (gram positive bacteria; [7]): 4 µg/mL (≈ 7.36 µM)
MIC (gram positive bacteria; [8]): 2 µg/mL (≈ 3.68 µM)
Photo Toxicity UV Tox50 (3T3 fibroblast cells): >145.98 µM
Photo Toxicity Dark Tox50 (3T3 fibroblast cells): >145.98 µM
IC50 at 24 h [1]: > 146 µM

CN(C)[C@@H]1C(O)=C(C(N)=O)C(=O)[C@@]2(O)C(O)=C3C(=O)c4c(O)ccc(C(=O)CNc5cccnc5)c4C[C@H]3C[C@@H]12 [CB]
MIC (gram negative bacteria; [2]): 64 µg/mL (≈ 117 µM)
MIC (gram negative bacteria; [3]): 64 µg/mL (≈ 117 µM)
MIC (gram negative bacteria; [4]): 64 µg/mL (≈ 117 µM)
MIC (gram negative bacteria; [5]): 64 µg/mL (≈ 117 µM)
IC50 at 24 h (in vitro): 110 µM
MIC (gram positive bacteria; [6]): 64 µg/mL (≈ 117 µM)
MIC (gram positive bacteria; [7]): 16 µg/mL (≈ 29.2 µM)
MIC (gram positive bacteria; [8]): 32 µg/mL (≈ 58.3 µM)
Photo Toxicity UV Tox50 (3T3 fibroblast cells): >152.86 µM
Photo Toxicity Dark Tox50 (3T3 fibroblast cells): >152.86 µM
IC50 at 24 h [1]: > 153 µM

CN(C)[C@@H]1C(O)=C(C(N)=O)C(=O)[C@@]2(O)C(O)=C3C(=O)c4c(O)ccc(C(=O)CNCc5ccco5)c4C[C@H]3C[C@@H]12 [CC]
MIC (gram negative bacteria; [2]): 64 µg/mL (≈ 116 µM)
MIC (gram negative bacteria; [3]): 32 µg/mL (≈ 58 µM)
MIC (gram negative bacteria; [4]): 32 µg/mL (≈ 58 µM)
MIC (gram negative bacteria; [5]): 64 µg/mL (≈ 116 µM)
IC50 at 24 h (in vitro): > 44.7 µM
MIC (gram positive bacteria; [6]): 16 µg/mL (≈ 29 µM)
MIC (gram positive bacteria; [7]): 1 µg/mL (≈ 1.81 µM)
MIC (gram positive bacteria; [8]): 2 µg/mL (≈ 3.63 µM)
Photo Toxicity UV Tox50 (3T3 fibroblast cells): >144.12 µM
Photo Toxicity Dark Tox50 (3T3 fibroblast cells): >144.12 µM
IC50 at 24 h [1]: > 44.7 µM

CN(C)c1cc(-c2cccc(C(N)=O)c2)c(O)c2c1C[C@H]1C[C@H]3[C@H](N(C)C)C(O)=C(C(N)=O)C(=O)[C@@]3(O)C(O)=C1C2=O [CD]
MIC (gram negative bacteria; [2]): 64 µg/mL (≈ 111 µM)
MIC (gram negative bacteria; [3]): 64 µg/mL (≈ 111 µM)
MIC (gram negative bacteria; [4]): 64 µg/mL (≈ 111 µM)
MIC (gram negative bacteria; [5]): 64 µg/mL (≈ 111 µM)
IC50 at 24 h (in vitro): > 45.3 µM
MIC (gram positive bacteria; [6]): 32 µg/mL (≈ 55.5 µM)
MIC (gram positive bacteria; [7]): 8 µg/mL (≈ 13.9 µM)
MIC (gram positive bacteria; [8]): 16 µg/mL (≈ 27.7 µM)
Photo Toxicity UV Tox50 (3T3 fibroblast cells): >146.26 µM
Photo Toxicity Dark Tox50 (3T3 fibroblast cells): >146.26 µM
IC50 at 24 h [1]: > 45.3 µM

Source: patent US20100022483A1, “Substituted Tetracycline Compounds” (Paratek Pharmaceuticals, Inc., priority 2008, published 2010)
